Where a SMILES comes first, the peptide text is derived from it. Bridges are numbered along the chain shown (N, C = ends). [ ]: non-standard residue; d: D form. The star is where a group is joined. ξ: configuration not given here. Phe(3,4,5-F3) = N[C@@H](Cc1cc(F)c(F)c(F)c1)C(=O)O; Phe(3,4-F2) = N[C@@H](Cc1ccc(F)c(F)c1)C(=O)O; Pro(trans-4-F) = O=C(O)[C@@H]1C[C@@H](F)CN1; NMePhe(4-F) = CN[C@@H](Cc1ccc(F)cc1)C(=O)O; Phe(4-CN) = N#Cc1ccc(C[C@H](N)C(=O)O)cc1; Phe(4-F) = N[C@@H](Cc1ccc(F)cc1)C(=O)O; Pro(4R-NH2) = N[C@H]1CN[C@H](C(=O)O)C1; d(cisHyp) = O=C(O)[C@H]1C[C@@H](O)CN1; Bta = N[C@@H](Cc1csc2ccccc12)C(=O)O; NMeIle(3ξ) = CCC(C)[C@H](NC)C(=O)O; Hyp = O=C(O)[C@@H]1C[C@@H](O)CN1; NMeF = CN[C@@H](Cc1ccccc1)C(=O)O; NMeL = CN[C@@H](CC(C)C)C(=O)O; NMeNle = CCCC[C@H](NC)C(=O)O; dPip = O=C(O)[C@H]1CCCCN1; NMeA = CN[C@@H](C)C(=O)O; Orn = NCCC[C@H](N)C(=O)O; Dab = NCC[C@H](N)C(=O)O; Dap = NC[C@H](N)C(=O)O; Propionyl = CCC(=O)*; Sar = CNCC(=O)O

In this assay the target is T1, Human PD-L1/PD-1 (Homo sapiens, UniProt Q9NZQ7).
T1 construct: TVMV protease cleavage site (C); made in house; host or cells: HEK293T cells
T1 sequence (Q9NZQ7 with tags, fused parts or gaps): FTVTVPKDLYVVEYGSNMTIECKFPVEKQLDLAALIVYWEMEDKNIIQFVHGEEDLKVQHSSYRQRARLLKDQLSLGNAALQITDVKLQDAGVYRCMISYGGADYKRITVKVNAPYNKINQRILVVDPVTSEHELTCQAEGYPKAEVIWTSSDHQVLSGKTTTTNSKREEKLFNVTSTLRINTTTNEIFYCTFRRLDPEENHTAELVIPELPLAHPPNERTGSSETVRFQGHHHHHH
In words: HTRF Human PD-L1/PD-1 binding assay (PD-1-Ig/PD-L1-His). The following applies: PD-L1-His 10 nM, PD-1-Ig 20 nM; class symbol; read-out: HTRF Human PD-L1/PD-1 Binding Assay IC50 Range. The essentials: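 HTRF read-out (665/620 nm ratio) after 30 min equilibration with Eu-cryptate anti-Ig mAb (1 nM) and APC anti-His mAb (20 nM). Peptides preincubated 15 min with PD-L1-His (10 nM), then PD-1-Ig (20 nM) added for 15 min.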
In the case of `CCCC[C@H]1C(=O)N2CCC[C@@H]2C(=O)N[C@@H](CC(=O)O)C(=O)N[C@@H](C(C)C)C(=O)N(C)[C@@H](Cc2ccccc2)C(=O)N[C@@H](Cc2ccc(O)cc2)C(=O)N2CCCC[C@@H]2C(=O)N[C@H](CCC(=O)O)C(=O)N[C@@H](Cc2ccc(O)cc2)C(=O)N[C@@H](CCCN)C(=O)N[C@H](C(=O)NCC(N)=O)CSCC(=O)N[C@@H](Cc2cc(F)c(F)c(F)c2)C(=O)N(C)[C@@H](Cc2ccc(F)cc2)C(=O)N1C` [Example 10610] ({CH2CO}-[Phe(3,4,5-F3)][NMePhe(4-F)][NMeNle][dP]DV[NMeF]Y[dPip][dE]Y[Orn]CG-NH2; thioether N-13), the IC50 is 100 to 990 nM.
Take `CCCC[C@H]1C(=O)N2CCC[C@@H]2C(=O)N[C@@H](CC(=O)O)C(=O)N[C@@H](C(C)C)C(=O)N(C)[C@@H](C(C)CC)C(=O)N[C@@H](CCC(N)=O)C(=O)N2CCCC[C@@H]2C(=O)N[C@@H](Cc2c[nH]c3ccccc23)C(=O)N[C@@H](Cc2ccc(O)cc2)C(=O)N[C@@H](CC(C)C)C(=O)N[C@H](C(=O)NCC(N)=O)CSCC(=O)N[C@@H](Cc2ccc(F)cc2)C(=O)N(C)[C@@H](Cc2ccccc2)C(=O)N1C` (some centres unmarked) [Example 9261] ({CH2CO}-[Phe(4-F)][NMeF][NMeNle][dP]DV[NMeIle(3ξ)]Q[dPip]WYLCG-NH2; thioether N-13): the IC50 lay in the range of 1000 to 10000 nM.
Regarding `CCCC[C@H]1C(=O)N(C)[C@@H](CCCC)C(=O)N[C@@H](CCC(=O)O)C(=O)N[C@H](C(=O)NCC(N)=O)CSCC(=O)N[C@@H](Cc2ccc(O)cc2)C(=O)N(C)[C@@H](C)C(=O)N[C@@H](CC(N)=O)C(=O)N2CCC[C@H]2C(=O)N[C@@H](CN)C(=O)N[C@@H](CC(C)C)C(=O)N2C[C@H](O)C[C@H]2C(=O)N[C@@H](Cc2c[nH]c3ccccc23)C(=O)N[C@@H](CCN)C(=O)N[C@@H](Cc2c[nH]c3ccccc23)C(=O)N1C` [Example 5161] ({CH2CO}-Y[NMeA]NP[Dap]L[Hyp]W[Dab]W[NMeNle][NMeNle]ECG-NH2; thioether N-14), the IC50 is 1 to 9.9 nM.
Turning to `CCCC[C@H]1C(=O)N(C)[C@@H](CCCC)C(=O)N[C@@H](CCC(=O)O)C(=O)N[C@H](C(=O)NCC(N)=O)CSCC(=O)N[C@@H](Cc2ccc(OC)cc2)C(=O)N(C)[C@@H](C)C(=O)N[C@@H](CC(N)=O)C(=O)N2CCC[C@H]2C(=O)N[C@@H](Cc2cnc[nH]2)C(=O)N[C@@H](CCCCN)C(=O)N2C[C@H](O)C[C@H]2C(=O)N[C@@H](Cc2c[nH]c3ccccc23)C(=O)N[C@@H](CC(=O)O)C(=O)N[C@@H](Cc2c[nH]c3ccccc23)C(=O)N1C` [Example 7115] ({CH2CO}-Y(Me)[NMeA]NPHK[Hyp]WDW[NMeNle][NMeNle]ECG-NH2; thioether N-14), the IC50 was in the range of 100 to 990 nM.
For `CCCC[C@H]1C(=O)N2C[C@H](O)C[C@@H]2C(=O)N2C[C@H](N)C[C@H]2C(=O)N[C@@H](C(C)C)C(=O)N(C)[C@@H](Cc2ccccc2)C(=O)N[C@@H](CCC(=O)O)C(=O)N2CCCC[C@@H]2C(=O)N[C@@H](Cc2c[nH]c3ccccc23)C(=O)N[C@@H](Cc2ccc(O)cc2)C(=O)N[C@@H](CC(C)C)C(=O)N[C@H](C(=O)NCC(N)=O)CSCC(=O)N[C@@H](Cc2cc(F)c(F)c(F)c2)C(=O)N(C)[C@@H](Cc2ccccc2)C(=O)N1C` [Example 3227] ({CH2CO}-[Phe(3,4,5-F3)][NMeF][NMeNle][d(cisHyp)][Pro(4R-NH2)]V[NMeF]E[dPip]WYLCG-NH2; thioether N-13), the IC50 lay in the range of 1 to 9.9 nM.
As for `CCCC[C@H]1C(=O)N(C)[C@@H](CCCC)C(=O)N[C@@H](CCC(=O)O)C(=O)N[C@H](C(=O)NCC(N)=O)CSCC(=O)N[C@@H](Cc2ccc(O)cc2)C(=O)N(C)[C@@H](C)C(=O)N[C@@H](CC(N)=O)C(=O)N2CCC[C@H]2C(=O)N[C@@H](CO)C(=O)N[C@@H](CCC(N)=O)C(=O)N2C[C@H](O)C[C@H]2C(=O)N[C@@H](Cc2c[nH]c3ccccc23)C(=O)N[C@@H](CCN)C(=O)N[C@@H](Cc2c[nH]c3ccccc23)C(=O)N1C` [Example 5251] ({CH2CO}-Y[NMeA]NPSQ[Hyp]W[Dab]W[NMeNle][NMeNle]ECG-NH2; thioether N-14), the IC50 was in the range of 1 to 9.9 nM.
For the compound `CCCC[C@H]1C(=O)N2C[C@H](O)C[C@@H]2C(=O)N[C@@H](CC(=O)O)C(=O)N[C@@H](C(C)C)C(=O)N(C)[C@@H](Cc2ccccc2)C(=O)N[C@@H](CCCCN)C(=O)N2C[C@H](O)C[C@@H]2C(=O)N[C@@H](Cc2c[nH]c3ccccc23)C(=O)N[C@@H](Cc2ccc(O)cc2)C(=O)N[C@@H](CC(C)C)C(=O)N[C@H](C(=O)NCC(N)=O)CSCC(=O)N[C@@H](Cc2ccc(F)c(F)c2)C(=O)N(C)[C@@H](Cc2ccccc2)C(=O)N1C` [Example 9318] ({CH2CO}-[Phe(3,4-F2)][NMeF][NMeNle][d(cisHyp)]DV[NMeF]K[d(cisHyp)]WYLCG-NH2; thioether N-13), the IC50 fell in the range of 1 to 9.9 nM.
Under `CCCC[C@H]1C(=O)N2CCC[C@@H]2C(=O)N[C@@H](CO)C(=O)N[C@@H](C)C(=O)N(C)[C@@H](Cc2ccccc2)C(=O)N[C@@H](Cc2ccc(O)cc2)C(=O)N(C)CC(=O)N[C@@H](Cc2csc3ccccc23)C(=O)N[C@@H](Cc2ccc(O)cc2)C(=O)N[C@@H](CC(C)C)C(=O)N[C@H](C(=O)NCC(N)=O)CSCC(=O)N[C@@H](Cc2ccccc2)C(=O)N(C)[C@@H](Cc2ccccc2)C(=O)N1C` [Example 10055] ({CH2CO}-F[NMeF][NMeNle][dP]SA[NMeF]Y[Sar][Bta]YLCG-NH2; thioether N-13) stands 100 to 990 nM; under `CCCC[C@H]1C(=O)N(C)[C@@H](CCCC)C(=O)N[C@@H](CCCNC(=O)CC)C(=O)N[C@H](C(=O)NCC(N)=O)CSCC(=O)N[C@@H](Cc2ccc(OC)cc2)C(=O)N(C)[C@@H](C)C(=O)N[C@@H](CC(N)=O)C(=O)N2CCC[C@H]2C(=O)N[C@@H](CC(N)=O)C(=O)N[C@@H](CC(C)C)C(=O)N2C[C@H](F)C[C@H]2C(=O)N[C@@H](Cc2c[nH]c3ccccc23)C(=O)N[C@@H](C)C(=O)N[C@@H](Cc2c[nH]c3ccccc23)C(=O)N1C` [Example 7083] ({CH2CO}-Y(Me)[NMeA]NPNL[Pro(trans-4-F)]WAW[NMeNle][NMeNle][Orn](Propionyl)CG-NH2; thioether N-14), 10 to 99.9 nM.
Then `CCCC[C@H]1C(=O)N(C)[C@@H](CCCC)C(=O)N[C@@H](CCCNC(=N)N)C(=O)N[C@H](C(=O)NCC(N)=O)CSCC(=O)N[C@@H](Cc2ccc(C#N)cc2)C(=O)N(C)[C@@H](C)C(=O)N[C@@H](CC(N)=O)C(=O)N2CCC[C@H]2C(=O)N[C@@H](Cc2cnc[nH]2)C(=O)N[C@@H](CCC(=O)O)C(=O)N2C[C@H](O)C[C@H]2C(=O)N[C@@H](Cc2c[nH]c3ccccc23)C(=O)N[C@@H](CO)C(=O)N[C@@H](Cc2c[nH]c3ccccc23)C(=O)N1C` [Example 7078] ({CH2CO}-[Phe(4-CN)][NMeA]NPHE[Hyp]WSW[NMeNle][NMeNle]RCG-NH2; thioether N-14), with 10 to 99.9 nM; and `CCCC[C@H]1C(=O)N2CCC[C@@H]2C(=O)N[C@@H](CC(=O)O)C(=O)N[C@@H](C(C)C)C(=O)N(C)[C@@H](CC(C)C)C(=O)N[C@@H](CCC(N)=O)C(=O)N2CCC[C@@H]2C(=O)N[C@@H](Cc2c[nH]c3ccccc23)C(=O)N[C@@H](Cc2ccc(O)cc2)C(=O)N[C@@H](CCCN)C(=O)N[C@H](C(=O)NCC(N)=O)CSCC(=O)N[C@@H](Cc2ccc(F)cc2)C(=O)N(C)[C@@H](Cc2ccccc2)C(=O)N1C` [Example 9255] ({CH2CO}-[Phe(4-F)][NMeF][NMeNle][dP]DV[NMeL]Q[dP]WY[Orn]CG-NH2; thioether N-13), with 1000 to 10000 nM.

(Values after patent US10538555B2, “Macrocyclic inhibitors of the PD-1/PD-L1 and CD80(B7-1)/PD-L1 protein/protein interactions” (BRISTOL-MYERS SQUIBB COMPANY, priority 2014, dated 2020).)
